From US20100240093A1, “Isolated Staphylococcus Pseudolugdunensis” (priority 2006, published 2010)

How the values were obtained:
S. epidermidis = test system: S. epidermidis; design: key: “R”, resistant; “S”, susceptible; “v”, variable; settings: cited from earlier work
S. lugdunensis = test system: S. lugdunensis; design: key: “R”, resistant; “S”, susceptible; “v”, variable; settings: cited from earlier work
S. auricularis = test system: S. auricularis; design: key: “R”, resistant; “S”, susceptible; “v”, variable; settings: cited from earlier work
Unknowns (n = 12) = assay: Novobiocin and polymyxin B resistance, summary of isolates; assay type: cell-based, Staphylococcus pseudolugdunensis; settings: for Summary: resistance percentage: Unknowns (n = 12)
Text: (§1) Both clinical isolates and reference isolates were first identified by the conventional method based on colony size and pigment; anaerobic and aerobic growth; the presence of clumping factor, Staphaurex latex agglutination (Murex Diagnostics Inc., Norcross, Ga.), hemolysins, oxidase, ODC, urease, and PYR (De Paulis, A. N., et al (2003) J. Clin. Microbiol. 41: 1219-24, 16, 25, 33). Species identification further confirmed by using an API STAPH (bioMerieux Vitek, Inc., Hazelwood, Mo.) according to the manufacturer's instructions (Brun, Y., et al (1990) J. Clin. Microbiol. 8: 503-8; Chapin, K., and M. Musgnug (2003) J. Clin. Microbiol. 41: 4324-7; Gemmell, C. G., and J. E. Dawson (1982) J. Clin. Microbiol. 16:874-7; Heikens, E., et al (2005) J. Clin. Microbiol. 43: 2286-90; Layer, F., B. et al (2006) J. Clin. Microbiol. 44: 2824-30.). PYR and ODC were performed with S. aureus (ATCC#25923) and S. lugdunensis (ATCC#700328) included as negative and positive controls, respectively. Biochemical tests included acid production from D-glucose, D-trehalose, D-mannitol, D-mannose, xylose, maltose, lactose, sucrose, N-acetylglucosamine, raffinose, D-fructose, D-melibiose, xylitol, and α-methyl-glucosamine; nitrate reduction; and alkaline phosphatase, arginine dihydrolase, urease, and acetoin production. […] Biochemical reactions, including catalase, coagulase, D-glucose, D-mannitol, D-fructose, galactose, lactose, maltose, sucrose, D-trehalose, xylose, nitrate reduction, arginine dihydrolase, urease, and novobiocin and polymyxin B resistance, were further confirmed at the Tennessee Department of Health Laboratory Services in Nashville, Tenn., using phenotypic methods recommended by the United States Centers for Disease Control (CDC), Atlanta, Ga. (Kloose, W. E. and T. L. Bannerman (1995) Staphylococcus and Micrococcus, p. 282-298, in P. R. Murray et al. (eds.) Manual of Clinical Microbiology, 6th ed., American Society for Microbiology Press, Washington, D.C.; Kloose, W. E. and K. H. Schleifer (1975) J. Clin. Microbiol. 1: 82-88).

isolate B292 = assay: Novobiocin and polymyxin B resistance, phenotypic methods; assay type: cell-based, Staphylococcus pseudolugdunensis; design: key: “R”, resistant; “S”, susceptible; “v”, variable
Text: as §1

isolate B837 = assay: as above; assay type: cell-based, Staphylococcus pseudolugdunensis; design: key: “R”, resistant; “S”, susceptible; “v”, variable
Text: as §1

isolate B006 = assay: as above; assay type: cell-based, Staphylococcus pseudolugdunensis; design: key: “R”, resistant; “S”, susceptible; “v”, variable
Text: as §1

isolate B060 = assay: as above; assay type: cell-based, Staphylococcus pseudolugdunensis; design: key: “R”, resistant; “S”, susceptible; “v”, variable
Text: as §1

isolate B287 = assay: as above; assay type: cell-based, Staphylococcus pseudolugdunensis; design: key: “R”, resistant; “S”, susceptible; “v”, variable
Text: as §1

isolate B715 = assay: as above; assay type: cell-based, Staphylococcus pseudolugdunensis; design: key: “R”, resistant; “S”, susceptible; “v”, variable
Text: as §1

isolate B739 = assay: as above; assay type: cell-based, Staphylococcus pseudolugdunensis; design: key: “R”, resistant; “S”, susceptible; “v”, variable
Text: as §1

isolate B354 = assay: as above; assay type: cell-based, Staphylococcus pseudolugdunensis; design: key: “R”, resistant; “S”, susceptible; “v”, variable
Text: as §1

isolate B334 = assay: as above; assay type: cell-based, Staphylococcus pseudolugdunensis; design: key: “R”, resistant; “S”, susceptible; “v”, variable
Text: as §1

isolate B230 = assay: as above; assay type: cell-based, Staphylococcus pseudolugdunensis; design: key: “R”, resistant; “S”, susceptible; “v”, variable
Text: as §1

“S. pettenkoferi” = test system: “S. pettenkoferi”; design: key: “R”, resistant; “S”, susceptible; “v”, variable; settings: Trulzsch et al. (2002); cited from earlier work
isolate B277 = assay: Novobiocin and polymyxin B resistance, phenotypic methods; assay type: cell-based, Staphylococcus pseudolugdunensis; design: key: “R”, resistant; “S”, susceptible; “v”, variable
Text: as §1

## Polymyxin B
S. epidermidis
  Resistance/Susceptibility: R
S. lugdunensis
  Resistance/Susceptibility: v
S. auricularis
  Resistance/Susceptibility: S
Unknowns (n = 12); Staphylococcus pseudolugdunensis bacteria
  Relative resistance of S. pseudolugdunensis to polymyxin B and novobiocin: more resistant to polymyxin B than to novobiocin
Unknowns (n = 12)
  Summary: resistance percentage: 8 percentage
Isolate B292
  Resistance/Susceptibility: S
Isolate B837
  Resistance/Susceptibility: R
Isolate B006
  Resistance/Susceptibility: S
Isolate B060
  Resistance/Susceptibility: S
Isolate B287
  Resistance/Susceptibility: S
Isolate B715
  Resistance/Susceptibility: S
Isolate B739
  Resistance/Susceptibility: S
Isolate B354
  Resistance/Susceptibility: S
Isolate B334
  Resistance/Susceptibility: S
Isolate B230
  Resistance/Susceptibility: S

## CO[C@@H]1[C@@H](OC(N)=O)[C@@H](O)[C@H](Oc2ccc3c(O)c(NC(=O)c4ccc(O)c(CC=C(C)C)c4)c(=O)oc3c2C)OC1(C)C [Novobiocin]
S. epidermidis
  Resistance/Susceptibility: S
S. lugdunensis
  Resistance/Susceptibility: S
S. auricularis
  Resistance/Susceptibility: S
Unknowns (n = 12)
  Summary: resistance percentage: 42 percentage
“S. pettenkoferi”
  Resistance/Susceptibility: S
Isolate B292
  Resistance/Susceptibility: R
Isolate B837
  Resistance/Susceptibility: R
Isolate B287
  Resistance/Susceptibility: R
Isolate B334
  Resistance/Susceptibility: R
Isolate B277
  Resistance/Susceptibility: R
